This note sets out measurements from US20230310459A1, “NEUROACTIVE STEROIDS AND THEIR METHODS OF USE” (Sage Therapeutics, Inc., priority 2017, published 2023).

This assay deals with Subjects with Major Depressive Disorder. The assay is described as follows: Phase 2 open-label study (Part A): HAM-D, MADRS, HAM-A efficacy. The assay is classed as in vivo, human. As to the method: In this multicenter, open-label, Phase 2 clinical trial, subjects were administered 30 mg Compound 1 on Days 1-14 and assessed through Day 28. Reductions in depressive and anxiety symptoms were assessed by the Hamilton Rating Scales for Depression and Anxiety (HAM-D and HAM-A), and the Montgomery-Asberg Depression Rating Scale (MADRS). Safety and tolerability were assessed via standard safety parameters. Pharmacokinetic parameters were also evaluated.
Written informed consent was provided at screening and was required for enrollment. The diagnosis of MDD was made using the Structured Clinical Interview for Diagnostic and Statistical Manual of Mental Disorders, Fifth Edition (DSM-5) Axis I Disorders (SCID-I), as performed by a qualified healthcare professional. Subjects were also screened with the 17-item Hamilton Rating Scale for Depression (HAM-D) to ensure symptom severity of at least 22. Hamilton Anxiety Rating Scale (HAM-A), Montgomery-Asberg Depression Rating Scale (MADRS), and Clinical Global Impression-Severity (CGI-S) scale were also administered. Using the 17-item HAM-D scale, a patient with a summed score of 17-23 was considered to have moderate depression; a summed score of ≥24 was considered severe depression. Patient histories and concomitant medication information were collected. The study population included subjects of both sexes, ages 18-65 years old, inclusive (inclusion/exclusion criteria below). Subjects remained as inpatients during the first 7 days of the study period and per Investigator's judgement thereafter. Subjects received the standard of care for adult inpatients diagnosed with MDD and were allowed to remain on a stable dose of psychotropic medications that were initiated at least 14 days prior to screening.
Compound 1 was provided as a 6 mg/mL stock aqueous solution, which was further diluted with sterile water to achieve the selected dose that was administered as an oral solution. Participants received an open label 30 mg Compound 1 oral dose administered at 8:00 PM (+/−15 minutes) with food on Days 1 through 14. Subjects who experienced drug-related moderate or severe adverse events (as judged by the study investigators) while receiving the 30 mg dose of study drug were to have their dose reduced to 20 mg for the remaining treatment period. Any subjects not tolerating a 20 mg dose were to be terminated from the study. Vital signs were collected daily. Other study procedures and plasma collection for PK parameters were conducted at various times during the 14-day open label treatment period (procedure details in the Supplemental Appendix). Treatment follow-up was conducted on an outpatient basis and included a follow-up visit at 1 week (21+/−1 day) and at 2 weeks (28+/−1 day) after the last dose of the study drug.
The primary endpoint of safety and tolerability of Compound 1 was assessed by the frequency and severity of adverse events, vital signs, changes in clinical laboratory measures, physical exams, electrocardiograms (ECGs), the Stanford Sleepiness Scale (SSS) score, and suicide ideation using the Columbia-Suicide Severity Rating Scale (C-SSRS, Supplemental Table 1). Secondary efficacy endpoints included: change from baseline in HAM-D total score, HAM-D response, defined as having a 50% or greater reduction from baseline in HAM-D total score, HAM-D remission, defined as having a HAM-D total score of ≤7, HAM-A change from baseline, and MADRS score change from baseline. The PK profile of Compound 1 was also determined from plasma samples.
Continuous parameters were summarized as n, mean, and standard deviation, with categorical variables summarized as frequency counts and percentages. For HAM-D, HAM-A, and MADRS total scores, p-values for change from baseline values were calculated based on mixed effects model for repeated measures with visit as fixed effect, adjusting for baseline total score. […]

[1] abbreviates: Day 15, 30 mg once daily Days 1-14, N=13.

Take `C[C@@]1(O)CC[C@H]2[C@H](CC[C@@H]3[C@@H]2CC[C@]2(C)[C@@H](C(=O)Cn4cc(C#N)cn4)CC[C@@H]32)C1` [Compound 1, 1-(2-((3R,5R,8R,9R,10S,13S,14S,17S)-3-hydroxy-3,13-dimethylhexadecahydro-1H-cyclopenta[a]phenanthren-17-yl)-2-oxoethyl)-1H-pyrazole-4-carbonitrile]: the “HAM-D remission rate (HAM-D total score ≤7)” value reads like this: (Day 15, end of the treatment period, N=13) 62%; (by Day 6, N=13) 39%. Besides, under setting [1], the “HAM-A total score, mean decrease from baseline” value came to 15.5 points. The “HAM-D total score, mean decrease from baseline” value under setting [1] is 19.9 points. The “MADRS total score, mean decrease from baseline” value under setting [1] was 26.4 points. For the same compound, under “Day 15, 30 mg once daily Days 1-14, baseline 23.2, N=13”, the “HAM-A mean total score” value stood at 7.7. Under “Day 15, 30 mg once daily Days 1-14, baseline 36.9, N=13”, the “MADRS mean total score” value is on record as 10.5. The “HAM-D mean total score” value (Day 15, 30 mg oral solution once daily Days 1-14 with food, baseline 27.2, N=13) is 7.3. Further, the HAM-D response rate is, setting by setting: (Day 15, absence of antidepressants at enrollment (n=8)) 75.0%; (Day 15, presence of antidepressants at enrollment (n=5)) 100%; (Day 28, absence of antidepressants at enrollment (n=8)) 75%; (Day 28, presence of antidepressants at enrollment (n=5)) 80%. For the same compound, the “HAM-D response rate (total score reduced by at least 50%)” value (Day 15, all 13 subjects) is 85%. Also, the “time at which significant reductions in depressive symptoms (HAM-D) were seen” value (p<0.05, 30 mg once daily) was “as early as Day 2”.
